Reference: US8946238B2, “Pyrazolo[1,5-A]pyrimidines as antiviral agents” (Gilead Sciences, Inc., priority 2011, dated 2015)

Tested on: RSV strain A2
Assay: RSV antiviral cytoprotection assay in Hep2 cells (RSV-induced cytopathic effect, Cell TiterGlo)
Type: cell-based, Respiratory Syncytial Virus (RSV)
Conditions: human respiratory syncytial virus, HEp-2, 0.5 μM compound; RSV A2-infected Hep2 cells; % inhibition calculated from 4-parameter dose response curve, normalized to 0% and 100%; read-out: Percent inhibition at 0.5 μM
Protocol: Antiviral activity against RSV was determined using an in vitro cytoprotection assay in Hep2 cells. […] The method used was similar to methods previously described in published literature (Chapman et al., Antimicrob Agents Chemother. 2007, 51(9):3346-53.)
Hep2 cells were obtained from ATCC (Manassas, VI) and maintained in MEM media supplemented with 10% fetal bovine serum and penicillin/streptomycin. Cells were passaged twice a week and kept at subconfluent stage. Commercial stock of RSV strain A2 (Advanced Biotechnologies, Columbia, Md.) was titered before compound testing to determine the appropriate dilution of the virus stock that generated desirable cytopathic effect in Hep2 cells.
For antiviral tests, Hep2 cells were seeded into 96-well plates 24 hours before the assay at a density of 3,000 cells/well. On a separate 96 well plate, compounds to be tested were serially diluted in cell culture media. Eight concentrations in 3-fold serial dilution increments were prepared for each tested compound and 100 uL/well of each dilution was transferred in duplicate onto plates with seeded Hep2 cells. Subsequently, appropriate dilution of virus stock previously determined by titration was prepared in cell culture media and 100 uL/well was added to test plates containing cells and serially diluted compounds. Each plate included three wells of infected untreated cells and three wells of uninfected cells that served as 0% and 100% virus inhibition control, respectively. Following the infection with RSV, testing plates were incubated for 4 days in a tissue culture incubator. After the incubation, RSV-induced cytopathic effect was determined using a Cell TiterGlo reagent (Promega, Madison, Wis.) followed by a luminescence read-out. The percentage inhibition was calculated for each tested concentration relative to the 0% and 100% inhibition controls and the EC50 value for each compound was determined by non-linear regression as a concentration inhibiting the RSV-induced cytopathic effect by 50%. Ribavirin (purchased from Sigma, St. Louis, Mo.) was used as a positive control for antiviral activity.
Compounds were also tested for antiviral activity against RSV in Hep2 cells using a 384 well format. Compounds were diluted in DMSO using a 10-step serial dilution in 3-fold increments via automation in 4 adjacent replicates each. Eight compounds were tested per dilution plate. 0.4 uL of diluted compounds were then stamped via Biomek into 384-well plates (Nunc 142761 or 164730 w/lid 264616) containing 20 μL of media (Mediatech Inc. MEM supplemented with Glutamine, 10% FBS and Pen/Strep). DMSO and a suitable positive control compound, such as 80 μM GS-329467 or 10 μM 427346 was used for the 100% and 0% cell killing controls, respectively.
Hep2 cells (1.0×10^5 cells/ml) were prepared as above in batch to at least 40 mls excess of the number of sample plates (8 mls cell mix per plate) and infected with vendor supplied (ABI) RSV strain A2 to arrive at an MOI of 1:1000 (virus:cell #) or 1:3000 (vol virus: cell vol). Immediately after addition of virus, the RSV infected Hep2 cell suspension was added to each stamped 384-well plate at 20 μl per well using a uFlow dispenser, giving a final volume of 40 μL/well, each with 2000 infected cells. The plates were then incubated for 5 days at 37° C. and 5% CO2. Following incubation, the plates were equilibrated to room temperature in a biosafety cabinet hood for 1.5 hrs and 40 μL of Cell-Titer Glo viability reagent (Promega) was added to each well via uFlow. Following a10-20 minute incubation, the plates were read using an EnVision or Victor Luminescence plate reader (Perkin-Elmer). The data was then uploaded and analyzed on the Bioinformatics portal under the RSV Cell Infectivity and 8-plate EC50-Hep2-384 or 8-plate EC50-Hep2-Envision protocols. […]

| SMILES | inhibition at 0.5 µM [%] |
| --- | --- |
| Cc1cn2nc([C@@H]3CCCCN3C(=O)c3cc(Cl)cc(Cl)n3)cc2nc1N1CC[C@H](N)C1 [Compound 100] | 100 |
| Cc1cn2nc([C@@H]3CCCCN3C(=O)c3cn4ncccc4n3)cc2nc1N1CC[C@H](N)C1 [Compound 101] | 16 |
| Cc1cn2nc([C@@H]3CCCCN3C(=O)c3ccc(-n4cncn4)cc3Cl)cc2nc1N1CC[C@H](N)C1 [Compound 102] | 16 |
| Cc1cn2nc([C@@H]3CCCCN3C(=O)c3ccccc3[S+](C)[O-])cc2nc1N1CC[C@H](N)C1 (some centres unmarked) [Compound 103] | 100 |
| Cc1cn2nc([C@@H]3CCCCN3C(=O)c3ncc(Cl)cc3C(F)(F)F)cc2nc1N1CC[C@H](N)C1 [Compound 104] | 56 |
| Cc1cn2nc([C@@H]3CCCCN3C(=O)c3ncc(C(F)(F)F)cc3Cl)cc2nc1N1CC[C@H](N)C1 [Compound 105] | 31 |
| Cc1cn2nc([C@@H]3CCCCN3C(=O)c3cc(Cl)ccc3C(F)(F)F)cc2nc1N1CC[C@H](N)C1 [Compound 106] | 100 |
| COc1ccc(F)c(C(=O)N2CCCC[C@H]2c2cc3nc(N4CC[C@H](N)C4)c(C)cn3n2)n1 [Compound 107] | 100 |
| Cc1cn2nc([C@@H]3CCCCN3C(=O)c3cccc4n[nH]cc34)cc2nc1N1CC[C@H](N)C1 [Compound 108] | 99 |
| Cc1cn2nc([C@@H]3CCCCN3C(=O)c3cc(F)ccc3C(F)(F)F)cc2nc1N1CC[C@H](N)C1 [Compound 109] | 100 |
| CCc1ccc(C(=O)N2CCCC[C@H]2c2cc3nc(N4CC[C@H](N)C4)c(C)cn3n2)nc1 [Compound 110] | 36 |
| Cc1ccc(Br)cc1C(=O)N1CCCC[C@H]1c1cc2nc(N3C[C@@H](C#N)[C@@H](O)C3)c(C)cn2n1 [Compound 112] | 100 |
| COc1ccccc1C(=O)N1CCCC[C@H]1c1cc2nc(N3C[C@@H](C#N)[C@@H](O)C3)c(C)cn2n1 [Compound 113] | 100 |
| Cc1cn2nc([C@@H]3CCCCN3C(=O)c3cc(F)c(F)c(Cl)c3F)cc2nc1N1C[C@@H](C#N)[C@@H](O)C1 [Compound 114] | 100 |
| Cc1cn2nc([C@@H]3CCCCN3C(=O)c3ncccc3Cl)cc2nc1N1C[C@@H](C#N)[C@@H](O)C1 [Compound 115] | 98 |
| Cc1cn2nc([C@@H]3CCCCN3C(=O)c3cccc(F)c3Cl)cc2nc1N1C[C@@H](C#N)[C@@H](O)C1 [Compound 116] | 100 |
| Cc1cn2nc([C@@H]3CCCCN3C(=O)c3ccc(C#N)cc3F)cc2nc1N1C[C@@H](C#N)[C@@H](O)C1 [Compound 117] | 46 |
| Cc1cn2nc([C@@H]3CCCCN3C(=O)c3ccc(C)c(F)c3F)cc2nc1N1C[C@@H](C#N)[C@@H](O)C1 [Compound 118] | 99 |
| Cc1ccc(C(F)(F)F)c(C(=O)N2CCCC[C@H]2c2cc3nc(N4C[C@@H](C#N)[C@@H](O)C4)c(C)cn3n2)c1 [Compound 120] | 100 |
| Cc1ccc(C(=O)N2CCCC[C@H]2c2cc3nc(N4C[C@@H](C#N)[C@@H](O)C4)c(C)cn3n2)c(C(F)(F)F)c1 [Compound 121] | 92 |
| Cc1cn2nc([C@@H]3CCCCN3C(=O)c3cc(F)ccc3OC(F)(F)F)cc2nc1N1C[C@@H](C#N)[C@@H](O)C1 [Compound 122] | 100 |
| Cc1cn2nc([C@@H]3CCCCN3C(=O)c3cccc4cn[nH]c34)cc2nc1N1C[C@@H](C#N)[C@@H](O)C1 [Compound 123] | 98 |
| Cc1cn2nc([C@@H]3CCCCN3C(=O)c3c(F)ccc(C)c3F)cc2nc1N1C[C@@H](C#N)[C@@H](O)C1 [Compound 124] | 100 |
| COc1ccc(C(=O)N2CCCC[C@H]2c2cc3nc(N4C[C@@H](C#N)[C@@H](O)C4)c(C)cn3n2)c(F)c1 [Compound 126] | 82 |

| SMILES | inhibition at 0.5 µM [%] |
| --- | --- |
| Cc1noc(-c2ccccc2C(=O)N2CCCC[C@H]2c2cc3nc(N4C[C@@H](C#N)[C@@H](O)C4)c(C)cn3n2)n1 [Compound 129] | 87 |
| Cc1cn2nc([C@@H]3CCCCN3C(=O)c3cc(F)cc4c3OCOC4)cc2nc1N1C[C@@H](C#N)[C@@H](O)C1 [Compound 130] | 100 |
| Cc1ccc(C(=O)N2CCCC[C@H]2c2cc3nc(N4C[C@@H](C#N)[C@@H](O)C4)c(C)cn3n2)c(Cl)c1 [Compound 131] | 96 |
| COc1cc2c(cc1C(=O)N1CCCC[C@H]1c1cc3nc(N4C[C@@H](C#N)[C@@H](O)C4)c(C)cn3n1)CCC2 [Compound 132] | 97 |
| Cc1cn2nc([C@@H]3CCCCN3C(=O)c3ccc4cccc(F)c4n3)cc2nc1N1C[C@@H](C#N)[C@@H](O)C1 [Compound 133] | 56 |
| Cc1cn2nc([C@@H]3CCCCN3C(=O)c3[nH]c4c(C)ccc(C)c4c3C)cc2nc1N1C[C@@H](C#N)[C@@H](O)C1 [Compound 134] | 35 |
| Cc1cn2nc([C@@H]3CCCCN3C(=O)c3cccc4ccnn34)cc2nc1N1C[C@@H](C#N)[C@@H](O)C1 [Compound 135] | 100 |
| Cc1cn2nc([C@@H]3CCCCN3C(=O)c3c(Cl)nc4ccccn34)cc2nc1N1C[C@@H](C#N)[C@@H](O)C1 [Compound 136] | 83 |
| Cc1ccc(S(C)(=O)=O)cc1C(=O)N1CCCC[C@H]1c1cc2nc(N3C[C@@H](C#N)[C@@H](O)C3)c(C)cn2n1 [Compound 138] | 65 |
| Cc1cn2nc([C@@H]3CCCCN3C(=O)c3cccc4c3CCCN4)cc2nc1N1C[C@@H](C#N)[C@@H](O)C1 [Compound 139] | 100 |
| Cc1cn2nc([C@@H]3CCCCN3C(=O)c3cccc4c3OCO4)cc2nc1N1C[C@@H](C#N)[C@@H](O)C1 [Compound 140] | 100 |
| Cc1cc(C(=O)N2CCCC[C@H]2c2cc3nc(N4C[C@@H](C#N)[C@@H](O)C4)c(C)cn3n2)c2[nH]ncc2c1 [Compound 143] | 100 |
| Cc1cn2nc([C@@H]3CCCCN3C(=O)c3ccccc3OC3CCCC3)cc2nc1N1C[C@@H](C#N)[C@@H](O)C1 [Compound 144] | 80 |
| CCS(=O)(=O)c1ccc(F)c(C(=O)N2CCCC[C@H]2c2cc3nc(N4C[C@@H](C#N)[C@@H](O)C4)c(C)cn3n2)c1 [Compound 145] | 60 |
| Cc1cn2nc([C@@H]3CCCCN3C(=O)c3ccccc3Cl)cc2nc1N1C[C@@H](C#N)[C@@H](O)C1 [Compound 146] | 100 |
| Cc1cn2nc([C@@H]3CCCCN3C(=O)c3cccc(C(F)(F)F)n3)cc2nc1N1C[C@@H](C#N)[C@@H](O)C1 [Compound 148] | 77 |
| Cc1cn2nc([C@@H]3CCCCN3C(=O)c3ccc(F)c(F)c3C)cc2nc1N1C[C@@H](C#N)[C@@H](O)C1 [Compound 149] | 100 |
| Cc1cn2nc([C@@H]3CCCCN3C(=O)c3ccc(F)cc3F)cc2nc1N1C[C@@H](C#N)[C@@H](O)C1 [Compound 150] | 99 |
| Cc1cn2nc([C@@H]3CCCCN3C(=O)c3cccc4cc[nH]c34)cc2nc1N1C[C@@H](C#N)[C@@H](O)C1 [Compound 151] | 100 |
| Cc1cn2nc([C@@H]3CCCCN3C(=O)c3nc(Cl)ccc3Cl)cc2nc1N1C[C@@H](C#N)[C@@H](O)C1 [Compound 152] | 100 |
| Cc1cc(F)c(F)cc1C(=O)N1CCCC[C@H]1c1cc2nc(N3C[C@@H](C#N)[C@@H](O)C3)c(C)cn2n1 [Compound 153] | 100 |
| Cc1cn2nc([C@@H]3CCCCN3C(=O)c3ncccc3Br)cc2nc1N1C[C@@H](C#N)[C@@H](O)C1 [Compound 154] | 90 |
| Cc1cc(F)ccc1C(=O)N1CCCC[C@H]1c1cc2nc(N3C[C@@H](C#N)[C@@H](O)C3)c(C)cn2n1 [Compound 155] | 100 |
